Article PMC5735085, “A 1-phytase type III effector interferes with plant hormone signaling” (Nature Communications, 2017)

Molecular target: T1, HopAO1 (Pseudomonas syringae group genomosp. 3, UniProt Q79LY0)
T1 construct: gene hopD2; full-length, N-terminal 6xHis (pMCSG57-hopAO1, DNASU), E. coli BL21-CodonPlus(DE3)-RIL
Assay: in vitro phytate degradation
Format: biochemical

T1 sequence (Q79LY0 whole entry): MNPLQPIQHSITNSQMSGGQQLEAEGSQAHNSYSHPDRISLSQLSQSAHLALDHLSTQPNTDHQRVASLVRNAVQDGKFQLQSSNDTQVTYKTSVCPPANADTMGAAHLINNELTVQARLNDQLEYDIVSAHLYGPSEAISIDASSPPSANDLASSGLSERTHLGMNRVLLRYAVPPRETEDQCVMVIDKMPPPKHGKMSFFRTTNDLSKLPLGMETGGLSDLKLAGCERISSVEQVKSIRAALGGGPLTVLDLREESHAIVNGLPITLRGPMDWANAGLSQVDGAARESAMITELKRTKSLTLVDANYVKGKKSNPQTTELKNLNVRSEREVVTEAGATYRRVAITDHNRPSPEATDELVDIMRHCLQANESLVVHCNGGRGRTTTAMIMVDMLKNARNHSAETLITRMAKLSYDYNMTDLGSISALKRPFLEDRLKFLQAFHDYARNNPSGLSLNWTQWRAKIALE

In the case of `O=P(O)(O)O[C@H]1[C@H](OP(=O)(O)O)[C@@H](OP(=O)(O)O)[C@H](OP(=O)(O)O)[C@@H](OP(=O)(O)O)[C@H]1OP(=O)(O)O` [InsP6], the “in vitro phytate degradation” value is reported as “HopAO1 degraded phytate in vitro but, in contrast to XopH, to lower phosphorylated”.
